The source of these data is patent US12180176B2, “Fluorinated empathogens” (priority 2021, dated 2024).

A short description of data set [1]: Metabolic stability in human liver microsomes. Type of data set: in vitro ADME. The source says:
Purpose: To determine the metabolic stability of a disclosed compound relative to its corresponding non-fluorinated analog. Metabolic stability assays measure the intrinsic clearance (CLint) of a compound, providing critical data needed to calculate other key pharmacokinetic parameters such as bioavailability and half-life (t1/2).
Methods: A high-throughput assay was used to determine metabolic stability of disclosed compounds and non-fluorinated analogs thereof in human liver microsomes. LC/MS analysis was used to quantify the percent compound remaining after incubation. The half-life (t1/2) was estimated from the slope of the initial linear range of the logarithmic curve of compound remaining (%) versus time, assuming first order kinetics.

The conditions of data set [2]: human psychoactivity, literature; cited from earlier work.
A further data set concerns the target SERT (Homo sapiens, UniProt P31645). The conditions noted are these: functional assay; cited from earlier work.

Each structure is given as a SMILES string.

SERT, sequence (P31645 whole entry, species assumed): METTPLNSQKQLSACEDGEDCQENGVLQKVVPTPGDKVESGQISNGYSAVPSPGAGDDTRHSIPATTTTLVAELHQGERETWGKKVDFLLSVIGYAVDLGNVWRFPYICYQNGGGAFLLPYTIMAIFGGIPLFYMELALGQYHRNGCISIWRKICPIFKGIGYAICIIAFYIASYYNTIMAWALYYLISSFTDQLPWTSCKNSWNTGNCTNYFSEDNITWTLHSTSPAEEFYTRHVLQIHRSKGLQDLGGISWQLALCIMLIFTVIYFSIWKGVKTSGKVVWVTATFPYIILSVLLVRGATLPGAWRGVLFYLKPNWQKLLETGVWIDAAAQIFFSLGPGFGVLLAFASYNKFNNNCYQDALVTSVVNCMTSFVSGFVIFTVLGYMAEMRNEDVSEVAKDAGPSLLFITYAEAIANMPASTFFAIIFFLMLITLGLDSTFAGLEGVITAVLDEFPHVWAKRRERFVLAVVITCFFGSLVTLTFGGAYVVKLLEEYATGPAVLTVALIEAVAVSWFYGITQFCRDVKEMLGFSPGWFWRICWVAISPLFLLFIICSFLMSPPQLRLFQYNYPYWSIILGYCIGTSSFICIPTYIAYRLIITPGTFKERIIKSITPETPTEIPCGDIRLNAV

On to `CC(Cc1ccc2c(c1)OCO2)NCCF.Cl` (centres unmarked) [MDEA-F], for which the percent compound remaining is on record as 100.0% in data set [1] (Time 0.0); 81.80% in data set [1] (Time 15.00); 68.75% in data set [1] (Time 30.00); 65.35% in data set [1] (Time 45.00); 42.05% in data set [1] (Time 60.00 (one hour of incubation), listed as ASR-1004); 42% in data set [1] (Time 60.00 (one hour of incubation), listed as MIDEA-F). In addition, the “half-life (t1/2)” value in data set [1] (estimated from slope of log % remaining versus time) is on record as “about 57 minutes”.
`CC(N)Cc1ccc2c(c1)OC(F)(F)O2` (centres unmarked) [DiFMDA, Difluoromethylenedioxyamphetamine]: the “active dose in humans” value in data set [2] was over 250 mg. In addition, the SERT affinity result at SERT is “between that of MDA and MDMA”.
`CC(N)Cc1ccc2c(c1)OCO2` (centres unmarked) [MDA, 3,4-methylenedioxyamphetamine]: in data set [2], the “active dose in humans” value was 80 to 160 mg.
Regarding `CC(Cc1ccc2c(c1)OCO2)NCC(F)(F)F` (centres unmarked) [MDTFEA, 3,4-methylenedioxy-N-trifluoroethylamphetamine], the “active dose in humans” value in data set [2] is over 500 mg.
